According to patent US20250085273A1, “NOVEL RAPID DRUG DISCOVERY FOR SEPSIS AND AGENTS FOR USE AS SEPSIS THERAPY” (priority 2023, published 2025):
Counter-ions that a name gives are not always drawn. Like-named read-outs stand apart in the source and are kept apart here.

Columns and labels:
Format in all cases: in vivo, Danio rerio
[1] = system: 5-dpf zebrafish larvae challenged with P. aeruginosa LPS 60 μg/mL; settings: compound 10 μM; for 5 dpf Embryos Percent Rescue (Mort + Tail Edema): 5-dpf larvae
Text: Confirmatory testing followed the same methods as the initial testing but used 5-dpf larvae instead of the 3-dpf larvae that were used for the initial screening because they were easier to handle and replicated the methods of Philip et al. (2017).
Next, follow-on 5-dpf screening was implemented to confirm initial screening with more larvae. Zebrafish swim faster at 5-dpf (requiring more time to load 96 plates), and all major organ systems are functioning at 5-dpf and thus determined as advantageous for follow-on confirmation.

[2] = system: 3-dpf Zebrafish Embryos Challenged with LPS (P. aeruginosa 60 μg/mL); settings: for Percent Rescue (Mort + Tail Edema): 3-dpf embryos, n=16; for Percent Rescue (Mort + Tail Edema) / 3 dpf Embryos Percent Rescue (Mort + Tail Edema) / rescue of tail edema and mortality (sepsis rescue rate) at 3-dpf: compound 10 μM; for 3 dpf Embryos Percent Rescue (Mort + Tail Edema): initial 3-dpf screen shown for reference
Description: Healthy, normally developing embryos collected from the adult AB zebrafish spawning events were treated with 75 μM of 1-phenyl 2-thiourea (PTU) in EM prior to 24 hours post fertilization (hpf) to block pigmentation formation (Karlsson et al, 2001). These embryos were then placed into an incubator at 28.5° C. until they reached 3-dpf. Embryos were then removed from the incubator and plated individually into the wells of 96 well plates containing 50 μL of EM.
A super stock of 120 μg/mL of P. aeruginosa LPS was made up in EM in a glass container. This stock was then used to make sub stocks of 120 μg/mL P. aeruginosa LPS (positive control) and 120 μg/mL P. aeruginosa LPS containing 20 μM of test drug in glass scintillation vials. Immediately after the sub stocks were made, the wells were dosed with either 50 μL of 120 μg/mL of P. aeruginosa, 120 μg/mL of P. aeruginosa with 20 μM of test drug, or EM (1:1 Dilution). Each 96 well plate had one LPS positive control (n=16), 4 different test drugs with P. aeruginosa LPS (n=16 per drug), and one negative control (n=16). Once the plates were dosed, they were covered with parafilm and placed into an incubator at 28.5° C. The plates were removed at 6- and 24-hours post exposure to be scored for tail edema and mortality. All 644 drugs evaluated for rescue from mortality and tail edema induced by P. aeruginosa LPS exposure as compared to LPS-treated controls after 24 hours of exposure.
3-dpf embryos were challenged with 60 μg/mL P. aeruginosa LPS in combination with single 10 μM concentration of each compound for 24 hours (n=16 fish per compound). […] Other 29 compounds exceeded 60% rescue of tail edema and mortality at 24 hours post exposure.

[3] = system: zebrafish (4 dpf pre-treated, LPS exposure at 5-dpf) challenged with P. aeruginosa LPS 60 μg/mL; settings: number of n = 16 fish
Description: Drugs identified with >80% rescue were subjected to additional testing. Drug pretreatment for 24 hours prior to LPS challenge was evaluated to determine if any prophylactic benefit could be realized with any of the top rescue drugs. The intent was to determine if drug pre-treatment might be used at the point of injury as a preventative therapeutic before the onset of infection and development of sepsis. Parallel groups of fish received a 24-hour drug pre-treatment or no drug pre-treatment prior to LPS challenge. For this test, 4 dpf PTU-treated zebrafish embryos were placed into 96 well plates containing 100 μL of EM. […] All plates were covered with parafilm and placed into an incubator at 28.5° C. for 24 hours. […] Once the plates were dosed, they were covered with parafilm and placed into an incubator at 28.5° C. The plates were removed at 6- and 24-hours post exposure and scored for tail edema and mortality. Once the 24-hour tail edema and mortality endpoints were collected, a neurobehavioral test was conducted as described in section 2.8.

[4] = P. aeruginosa LPS 60 μg/mL, 24 hours
[5] = 3-dpf, P. aeruginosa LPS 60 μg/mL, 24 hours
[6] = P. aeruginosa LPS 60 μg/mL, 24 hours, hydrochloride
[7] = 3-dpf, P. aeruginosa LPS 60 μg/mL, 24 hours, hydrochloride
[8] = 24-hour 10 μM drug pre-treatment

| Molecule | 5 dpf Embryos Percent Rescue (Mort + Tail Edema) [1] [%] | Percent Rescue (Mort + Tail Edema) [2, 4] [%] | 3 dpf Embryos Percent Rescue (Mort + Tail Edema) ([2]; P. aeruginosa LPS 60 μg/mL) [%] | further results |
| --- | --- | --- | --- | --- |
| C[C@H](N)[C@H](O)c1ccc(O)c(O)c1 [Compound 10, Levonordefrin] | 75 | 63 | 63 |  |
| O=C(Nc1nc(-c2cc(Cl)cs2)c(N2CCN(C3CCCCC3)CC2)s1)c1cnc(N2CCC(C(=O)O)CC2)c(Cl)c1 [Compound 31, Avatrombopag] | 31 | 75 | 75 |  |
| Cc1nc2n(c(=O)c1CCN1CCC(c3noc4cc(F)ccc34)CC1)CCCC2O (stereo not drawn) [Compound 61, Paliperidone] |  |  |  | rescue of tail edema and mortality (sepsis rescue rate) at 3-dpf [2, 5]: 6% |
| C[C@H]1N=C(N(C)C)N=C(N)N1 [Compound 317, Imeglimin (hydrochloride)] |  | 50 |  |  |
| O=C(O)c1cc2ccccc2c(Cc2c(O)c(C(=O)O)cc3ccccc23)c1O.OCCOCCN1CCN(C(c2ccccc2)c2ccc(Cl)cc2)CC1 [Compound 207, Hydroxyzine (pamoate)] |  | 50 |  |  |
| Alverine (citrate) [Compound 138] | 38 | 69 | 69 |  |
| Gabexate (mesylate) [Compound 8] | 31 | 88 | 88 |  |
| CC(C)(C(=O)O)c1ccc(C(O)CCCN2CCC(C(O)(c3ccccc3)c3ccccc3)CC2)cc1 (stereo not drawn) [Compound 137, Fexofenadine] |  |  |  | rescue of tail edema in 3-dpf initial screen ([2]; 3-dpf, P. aeruginosa LPS 60 μg/mL): did not rescue tail edema; mortality (survival) in 3-dpf initial screen [2, 5]: did rescue mortality |
| CN(C)CCOC(C)(c1ccccc1)c1ccc(Cl)cc1 (stereo not drawn) [Compound 157, Chlorphenoxamine] |  | 50 |  |  |
| CNCCc1ccccn1 [Compound 310, Betahistine] |  | 56 |  |  |
| Almotriptan (malate) [Compound 6] | 63 | 63 | 63 |  |
| CNS(=O)(=O)CCc1ccc2[nH]cc(C3CCN(C)CC3)c2c1 [Compound 438, Naratriptan (hydrochloride)] |  | 50 |  |  |
| CCN(CC)CCNC(=O)c1c(C)[nH]c(/C=C2\C(=O)Nc3ccc(F)cc32)c1C [Compound 621, Sunitinib Malate] | 100 | 94 | 94 | rescue of tail edema and mortality (sepsis rescue rate) at 5-dpf [1]: 100%; rescue of tail edema and mortality (sepsis rescue rate) at 3-dpf [2, 5]: 88% |
| Cc1cc(Nc2ncc(Cl)c(Nc3ccccc3S(=O)(=O)C(C)C)n2)c(OC(C)C)cc1C1CCNCC1 [Compound 378, Ceritinib dihydrochloride] | 38 | 75 | 75 |  |
| CN1CCc2c(c3ccccc3n2Cc2ccccc2)C1 [Compound 318, Mebhydrolin] |  | 56 |  |  |
| CN(C)[C@@H](CCOc1cccc2ccccc12)c1ccccc1 [Compound 156, Dapoxetine (hydrochloride)] | 38 | 100 | 100 | rescue of tail edema and mortality (sepsis rescue rate) at 5-dpf [1]: 38%; rescue of tail edema and mortality (sepsis rescue rate) at 3-dpf [2, 5]: 100% |
| COc1cc2ncnc(Nc3ccc(F)c(Cl)c3)c2cc1OCCCN1CCOCC1 [Compound 516, Gefitinib (ZD1839)] |  | 50 |  |  |

| Molecule | 5 dpf Embryos Percent Rescue (Mort + Tail Edema) [1] [%] | Percent Rescue (Mort + Tail Edema) [2, 4] [%] | 3 dpf Embryos Percent Rescue (Mort + Tail Edema) ([2]; P. aeruginosa LPS 60 μg/mL) [%] | further results |
| --- | --- | --- | --- | --- |
| CCN(CC)CCNC(=O)c1c(C)[nH]c(/C=C2\C(=O)Nc3ccc(F)cc32)c1C [Compound 354, Sunitinib (Malate)] | 100 | 88 | 88 | rescue of tail edema and mortality (sepsis rescue rate) at 5-dpf [1]: 100%; rescue of tail edema and mortality (sepsis rescue rate) at 3-dpf [2, 5]: 88% |
| O=C(Nc1nc(-c2cc(Cl)cs2)c(N2CCN(C3CCCCC3)CC2)s1)c1cnc(N2CCC(C(=O)O)CC2)c(Cl)c1 [Compound 3, Avatrombopag (hydrochloride)] |  |  |  | Percent Rescue (Mort + Tail Edema) [2, 6]: 56% |
| CC(C)(C)c1ccc(C(O)CCCN2CCC(C(O)(c3ccccc3)c3ccccc3)CC2)cc1 (stereo not drawn) [Compound 44, Terfenadine] | 0 | 75 | 75 | pericardial edema observation ([2]; 3-dpf, 24 hours): had pericardial edemas; mortality (survival) in 3-dpf initial screen [2, 5]: alive at 24 hours |
| CN[C@H]1CC[C@@H](c2ccc(Cl)c(Cl)c2)c2ccccc21 [Compound 37, Sertraline (hydrochloride)] | 31 | 88 | 88 |  |
| Clc1ccc(CCCOCCCN2CCCCC2)cc1 [Compound 589, Pitolisant hydrochloride] |  |  |  | Percent Rescue (Mort + Tail Edema) [2, 6]: 56%; rescue of tail edema and mortality (sepsis rescue rate) at 3-dpf [2, 7]: 56% |
| Cc1nc2n(c(=O)c1CCN1CCC(c3noc4cc(F)ccc34)CC1)CCCC2 [Compound 4, Risperidone] |  |  |  | rescue of tail edema and mortality (sepsis rescue rate) at 3-dpf [2, 5]: 6% |
| Bedaquiline fumarate [Compound 474] | 0 | 94 | 94 |  |
| CC(C)NCC(O)COc1cccc2[nH]ccc12 (stereo not drawn) [Compound 12, Pindolol] |  | 56 |  |  |
| Clc1ccc(CCCOCCCN2CCCCC2)cc1 [Compound 126, Pitolisant hydrochloride] |  |  |  | rescue of tail edema and mortality (sepsis rescue rate) at 3-dpf [2, 7]: 38% |
| Lumateperone (tosylate) [Compound 30] | 19 | 75 | 75 |  |
| Nc1ccc(S(=O)(=O)c2ccc(N)cc2)cc1 [Compound 155, Dapsone] | 25 | 69 | 69 |  |
| CCN(CC)CC(=O)Nc1c(C)cccc1C [Compound 549, Lidocaine hydrochloride] |  | 56 |  |  |
| N[C@@H]1C[C@H]1c1ccccc1.N[C@@H]1C[C@H]1c1ccccc1.O=S(=O)(O)O [Compound 7, Tranylcypromine (hemisulfate)] | 56 | 88 | 88 |  |
| CC(C)(C)c1cc(NC(=O)Nc2ccc(-c3cn4c(n3)sc3cc(OCCN5CCOCC5)ccc34)cc2)no1 [Compound 598, Quizartinib (AC220)] |  | 56 |  |  |
| CNCC[C@H](Oc1cccc2ccccc12)c1cccs1 [Compound 386, Duloxetine (hydrochloride)] |  | 50 |  |  |
| CCN(CC)CCNC(=O)c1c(C)[nH]c(/C=C2\C(=O)Nc3ccc(F)cc32)c1C.O=C(O)C[C@H](O)C(=O)O [Sunitnib (malate)] |  |  |  | 24 hour Tail Edema, No-Drug Pretreatment ([3]; 10 μM drug with LPS 60 μg/mL, no 24-hour pre-treatment): 4 fish; 24 Hour Mortality and Tail Edema, Drug Pretreatment [3, 8]: 2 fish; 24 Hour Mortality, Drug Pretreatment [3, 8]: 1 fish; 24 hour Tail Edema, Drug Pretreatment ([3]; 24-hour 10 μM drug pre-treatment before LPS 60 μg/mL): 1 fish; 24 Hour Mortality and Tail Edema, No-Drug Pretreatment ([3]; no 24-hour pre-treatment): 5 fish; 24 Hour Mortality, No Drug Pretreatment ([3]; no 24-hour pre-treatment): 1 fish |
